Values after ≈ are worked out from the molar mass of the structure shown. Active and inactive are the calls of the source. No cut-off for these calls is given here.
Assays:
Pseudomonas aeruginosa = assay: Antibacterial activity against Pseudomonas aeruginosa ATCC 27853 by broth micro dilution method; assay type: functional
Bacillus subtilis [1] = assay: Induction of ClpP protein expression in Bacillus subtilis 168 at 2.3 uM incubated for 15 mins by 35S-methionine pulse labeling based 2D-PAGE analysis; assay type: functional, organism-based
Staphylococcus aureus [2] = assay: Antibacterial activity against Staphylococcus aureus ATCC 25923 by broth micro dilution method; assay type: functional
Bacillus subtilis [3] = assay: Induction of YdjE protein expression in Bacillus subtilis 168 at 2.3 uM incubated for 15 mins by 35S-methionine pulse labeling based 2D-PAGE analysis; assay type: functional, organism-based
Bacillus subtilis [4] = assay: Induction of Tpx protein expression in Bacillus subtilis 168 at 2.3 uM incubated for 15 mins by 35S-methionine pulse labeling based 2D-PAGE analysis; assay type: functional, organism-based
Bacillus subtilis [5] = assay: Induction of LiaH.2 protein expression in Bacillus subtilis 168 at 2.3 uM incubated for 15 mins by 35S-methionine pulse labeling based 2D-PAGE analysis; assay type: functional, organism-based
Enterococcus faecalis [6] = assay: Antibacterial activity against Enterococcus faecalis ATCC 29212 by broth micro dilution method; assay type: functional
Staphylococcus aureus [7] = assay: Antibacterial activity against methicillin-resistant Staphylococcus aureus ATCC 700699 assessed as delay in growth at 1.56 uM measured for 6 hrs; assay type: functional, organism-based
Bacillus subtilis [8] = assay: Induction of GroEL.1 protein expression in Bacillus subtilis 168 at 2.3 uM incubated for 15 mins by 35S-methionine pulse labeling based 2D-PAGE analysis; assay type: functional, organism-based
Staphylococcus aureus [9] = assay: Bactericidal activity against methicillin-resistant Staphylococcus aureus ATCC 700699 assessed as reduction in bacterial CFU at 4 times MIC measured for 30 mins; assay type: functional
Erythrocyte = assay: Hemolytic activity against human erythrocytes at =>100 uM measured up to 24 hrs; assay type: ADME, cell-based
Bacillus subtilis [10] = assay: Induction of YqjE protein expression in Bacillus subtilis 168 at 2.3 uM incubated for 15 mins by 35S-methionine pulse labeling based 2D-PAGE analysis; assay type: functional, organism-based
Bacillus subtilis [11] = assay: Induction of Cah protein expression in Bacillus subtilis 168 at 2.3 uM incubated for 15 mins by 35S-methionine pulse labeling based 2D-PAGE analysis; assay type: functional, organism-based
Bacillus subtilis [12] = assay: Induction of YwfI protein expression in Bacillus subtilis 168 at 2.3 uM incubated for 15 mins by 35S-methionine pulse labeling based 2D-PAGE analysis; assay type: functional, organism-based
Bacillus subtilis [13] = assay: Induction of GroEL.2 protein expression in Bacillus subtilis 168 at 2.3 uM incubated for 15 mins by 35S-methionine pulse labeling based 2D-PAGE analysis; assay type: functional, organism-based
Bacillus subtilis [14] = assay: Induction of NfrA protein expression in Bacillus subtilis 168 at 2.3 uM incubated for 15 mins by 35S-methionine pulse labeling based 2D-PAGE analysis; assay type: functional, organism-based
Bacillus subtilis [15] = assay: Induction of AhpF protein expression in Bacillus subtilis 168 at 2.3 uM incubated for 15 mins by 35S-methionine pulse labeling based 2D-PAGE analysis; assay type: functional, organism-based
Bacillus subtilis [16] = assay: Induction of AroA protein expression in Bacillus subtilis 168 at 2.3 uM incubated for 15 mins by 35S-methionine pulse labeling based 2D-PAGE analysis; assay type: functional, organism-based
Bacillus subtilis [17] = assay: Induction of GroEL.3 protein expression in Bacillus subtilis 168 at 2.3 uM incubated for 15 mins by 35S-methionine pulse labeling based 2D-PAGE analysis; assay type: functional, organism-based
Staphylococcus aureus [18] = assay: Induction of membrane integrity impairment in methicillin-resistant Staphylococcus aureus ATCC 700699 at 0.5 to 4 times MIC measured for 30 mins by DiOC2(3) probe based fluorescence assay; assay type: functional, organism-based
Acinetobacter baumannii [19] = assay: Antibacterial activity against Acinetobacter baumannii ATCC BAA-747 by broth micro dilution method; assay type: functional
Bacillus subtilis [20] = assay: Induction of LiaH.1 protein expression in Bacillus subtilis 168 at 2.3 uM incubated for 15 mins by 35S-methionine pulse labeling based 2D-PAGE analysis; assay type: functional, organism-based
Bacillus subtilis [21] = assay: Induction of MenB protein expression in Bacillus subtilis 168 at 2.3 uM incubated for 15 mins by 35S-methionine pulse labeling based 2D-PAGE analysis; assay type: functional, organism-based
Acinetobacter baumannii [22] = assay: Antibacterial activity against multidrug-resistant Acinetobacter baumannii ATCC BAA-1605 by broth micro dilution method; assay type: functional
Bacillus subtilis [23] = assay: Induction of YvlB protein expression in Bacillus subtilis 168 at 2.3 uM incubated for 15 mins by 35S-methionine pulse labeling based 2D-PAGE analysis; assay type: functional, organism-based
Staphylococcus aureus [24] = assay: Induction of membrane integrity impairment in methicillin-resistant Staphylococcus aureus ATCC 700699 at 12.5 to 25 uM measured for 3 hrs by PI staining based fluorescence assay; assay type: functional, organism-based
Bacillus subtilis [25] = assay: Induction of YceH protein expression in Bacillus subtilis 168 at 2.3 uM incubated for 15 mins by 35S-methionine pulse labeling based 2D-PAGE analysis; assay type: functional, organism-based
Bacillus subtilis [26] = assay: Induction of PspA protein expression in Bacillus subtilis 168 at 2.3 uM incubated for 15 mins by 35S-methionine pulse labeling based 2D-PAGE analysis; assay type: functional, organism-based
[27] = Selectivity index, ratio of IC50 for human HEK293 cells to MIC90 for methicillin-resistant Staphylococcus aureus ATCC 700699; assay type: toxicity; settings: read-out: Selectivity Index
Enterococcus faecalis [28] = assay: Antibacterial activity against vancomycin-resistant Enterococcus faecalis ATCC 700221 by broth micro dilution method; assay type: functional
Bacillus subtilis [29] = assay: Induction of TrxA protein expression in Bacillus subtilis 168 at 2.3 uM incubated for 15 mins by 35S-methionine pulse labeling based 2D-PAGE analysis; assay type: functional, organism-based
Staphylococcus aureus [30] = assay: Antibacterial activity against mid-exponential growth phase of methicillin-resistant Staphylococcus aureus ATCC 700699 assessed as increase in cell lysis at 12.5 to 25 uM; assay type: functional, organism-based
Staphylococcus aureus [31] = assay: Induction of membrane integrity impairment in methicillin resistant Staphylococcus aureus Mu50 assessed as increase in release of ATP at 1 to 16 times MIC incubated for 1 hr by BacTiter-Glo Assay; assay type: functional, organism-based
[32] = Selectivity index, ratio of IC50 for human THP1 cells to MIC90 for methicillin-resistant Staphylococcus aureus ATCC 700699; assay type: toxicity; settings: read-out: Selectivity Index
Bacillus subtilis [33] = assay: Induction of FabG protein expression in Bacillus subtilis 168 at 2.3 uM incubated for 15 mins by 35S-methionine pulse labeling based 2D-PAGE analysis; assay type: functional, organism-based
Bacillus subtilis [34] = assay: Induction of HisI protein expression in Bacillus subtilis 168 at 2.3 uM incubated for 15 mins by 35S-methionine pulse labeling based 2D-PAGE analysis; assay type: functional, organism-based
Enterococcus faecalis [35] = assay: Antibacterial activity against Enterococcus faecalis ATCC 35667 by broth micro dilution method; assay type: functional
Bacillus subtilis [36] = assay: Induction of ClpC protein expression in Bacillus subtilis 168 at 2.3 uM incubated for 15 mins by 35S-methionine pulse labeling based 2D-PAGE analysis; assay type: functional, organism-based
[37] = Cytotoxicity against human MRC5 cells assessed as reduction in cell viability incubated for 48 hrs by resazurin reagent based assay; settings: human, MRC5 cells

CC(C)=CCC/C(C)=C/Cc1c(O)ccc(C(=O)/C=C/c2ccc(O)cc2)c1O [XANTHOANGELOL]
MIC (Pseudomonas aeruginosa): > 100 µM | Activity (Bacillus subtilis [1]): Active | MIC (Staphylococcus aureus [2]): 6.25 µM (≈ 2.45 µg/mL) | Activity (Bacillus subtilis [3]): Active | Activity (Bacillus subtilis [4]): Active | Activity (Bacillus subtilis [5]): Active | MIC (Enterococcus faecalis [6]): 12.5 µM (≈ 4.91 µg/mL) | Activity (Staphylococcus aureus [7]): Active | Activity (Bacillus subtilis [8]): Active | Activity (Staphylococcus aureus [9]): <20 CFU/ml | Activity (Erythrocyte): Toxic | Activity (Bacillus subtilis [10]): Active | Activity (Bacillus subtilis [11]): Active | Activity (Bacillus subtilis [12]): Active | Activity (Bacillus subtilis [13]): Active | Activity (Bacillus subtilis [14]): Active | Activity (Bacillus subtilis [15]): Active | Activity (Bacillus subtilis [16]): Active | Activity (Bacillus subtilis [17]): Active | Activity (Staphylococcus aureus [18]): Active | MIC (Acinetobacter baumannii [19]): > 100 µM | Activity (Bacillus subtilis [20]): Active | Activity (Bacillus subtilis [21]): Active | MIC (Acinetobacter baumannii [22]): > 100 µM | Activity (Bacillus subtilis [23]): Active | Activity (Staphylococcus aureus [24]): Active | Activity (Bacillus subtilis [25]): Active | Activity (Bacillus subtilis [26]): Active | selectivity ratio [27]: 16.2 | MIC (Enterococcus faecalis [28]): 3.12 µM (≈ 1.23 µg/mL) | Activity (Bacillus subtilis [29]): Active | Activity (Staphylococcus aureus [30]): Active | Activity (Staphylococcus aureus [31]): Active | selectivity ratio [32]: 17.7 | Activity (Bacillus subtilis [33]): Active | Activity (Bacillus subtilis [34]): Active | MIC (Enterococcus faecalis [35]): 12.5 µM (≈ 4.91 µg/mL) | Activity (Bacillus subtilis [36]): Active | IC90 at 48 h [37]: 27.6 µM

From ChEMBL document CHEMBL4406882, “The plant-derived chalcone Xanthoangelol targets the membrane of Gram-positive bacteria” (Bioorg Med Chem, 2019)
